# pIC50: −log10 of the molar value. Several values for one entry are separate records, joined by “and”; a condition that tells them apart may be missing. Equal entries are not always repeated. Where two headings read alike, the source gives them in different places.
# Tests used:
# [1] = target: T1, Trypsin (Bos taurus, UniProt P00760); experiment: Anti-trypsin activity (inhibition of TAME hydrolysis); format: biochemical; details: read-out: ID50, Trypsin
# T1 sequence (P00760 24-246): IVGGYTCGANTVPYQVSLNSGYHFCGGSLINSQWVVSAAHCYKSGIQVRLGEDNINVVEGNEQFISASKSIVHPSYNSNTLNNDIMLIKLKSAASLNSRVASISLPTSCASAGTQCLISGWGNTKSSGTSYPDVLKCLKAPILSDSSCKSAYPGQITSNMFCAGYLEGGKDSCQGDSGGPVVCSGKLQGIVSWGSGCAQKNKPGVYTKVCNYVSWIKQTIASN
# [2] = target: T2, C1s (Homo sapiens, UniProt P09871); experiment: Anti-C1s activity (inhibition of ATEE hydrolysis); format: biochemical; details: read-out: ID50, C1s
# T2 sequence (P09871 16-437 limits assumed): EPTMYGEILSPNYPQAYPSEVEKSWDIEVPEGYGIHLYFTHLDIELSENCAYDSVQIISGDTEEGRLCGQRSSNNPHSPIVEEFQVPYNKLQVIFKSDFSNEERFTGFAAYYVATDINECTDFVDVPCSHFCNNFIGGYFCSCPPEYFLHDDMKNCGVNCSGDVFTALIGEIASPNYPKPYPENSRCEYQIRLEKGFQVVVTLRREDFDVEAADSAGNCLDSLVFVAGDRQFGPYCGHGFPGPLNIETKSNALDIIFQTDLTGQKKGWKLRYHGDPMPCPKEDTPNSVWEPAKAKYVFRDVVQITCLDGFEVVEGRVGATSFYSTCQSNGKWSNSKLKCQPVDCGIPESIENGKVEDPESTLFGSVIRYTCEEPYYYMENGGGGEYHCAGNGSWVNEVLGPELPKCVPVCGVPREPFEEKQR
# T2 sequence (P09871 438-688 limits assumed): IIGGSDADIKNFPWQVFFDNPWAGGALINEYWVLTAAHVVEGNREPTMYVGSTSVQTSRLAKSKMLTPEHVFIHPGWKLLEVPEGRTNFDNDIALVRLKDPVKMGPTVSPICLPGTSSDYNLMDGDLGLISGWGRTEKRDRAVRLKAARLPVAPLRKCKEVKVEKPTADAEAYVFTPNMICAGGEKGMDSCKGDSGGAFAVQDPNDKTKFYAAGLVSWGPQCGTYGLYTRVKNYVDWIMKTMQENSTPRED
# Procedure: (§1) The anti-C1 esterase (C1r, C1s) activity was determined according to the method of Okamura et al. [K. Okamura, M. Muramatsu and B. Fujii, Biochem. Biophys. Acta, 295, 252-257 (1973)]. (2) The inhibition of complement mediated hemolysis was determined according to the method of Baker et al. [B. R. Baker and E. H. Erickson, J. Med. Chem., 12, 408-414 (1969)]. The figures in Table 2 have the following meanings:
# C1s: Molar concentration of the test compound which inhibits 50% of the ability of C1s to hydrolyse ATEE (acetyltyrosin ethyl ester) (ID50).
# [3] = tested on: complement mediated hemolysis; experiment: Inhibition of complement mediated hemolysis; format: cell-based
# Description: Therefore, when a known amount of complement admixed with a C1 esterase inhibitor is used, the hemolysis must be suppressed in proportion to the inhibitory activity.
# [4] = tested on: Kallikrein; experiment: Anti-kallikrein activity (inhibition of TAME hydrolysis); format: biochemical; details: read-out: ID50, Kallikrein
# [5] = target: Plasmin (Homo sapiens, UniProt P00747); experiment: Anti-plasmin activity (inhibition of TAME hydrolysis); format: biochemical
# Sequence of Plasmin (P00747 97-580 limits assumed, species assumed): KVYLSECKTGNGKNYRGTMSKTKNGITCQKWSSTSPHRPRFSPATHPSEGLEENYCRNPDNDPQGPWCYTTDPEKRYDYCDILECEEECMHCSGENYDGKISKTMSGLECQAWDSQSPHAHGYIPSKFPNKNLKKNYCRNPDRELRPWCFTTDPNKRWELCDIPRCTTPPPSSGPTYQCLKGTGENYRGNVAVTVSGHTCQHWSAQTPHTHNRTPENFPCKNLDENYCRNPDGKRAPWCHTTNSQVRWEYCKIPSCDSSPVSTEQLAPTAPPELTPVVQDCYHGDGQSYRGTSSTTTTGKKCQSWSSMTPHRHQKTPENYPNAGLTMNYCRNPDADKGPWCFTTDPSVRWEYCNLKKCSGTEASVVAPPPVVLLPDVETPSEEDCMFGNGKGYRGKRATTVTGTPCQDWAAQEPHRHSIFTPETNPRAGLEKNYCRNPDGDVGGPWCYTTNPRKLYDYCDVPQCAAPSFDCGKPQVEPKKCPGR
# Sequence of Plasmin (P00747 581-810 limits assumed, species assumed): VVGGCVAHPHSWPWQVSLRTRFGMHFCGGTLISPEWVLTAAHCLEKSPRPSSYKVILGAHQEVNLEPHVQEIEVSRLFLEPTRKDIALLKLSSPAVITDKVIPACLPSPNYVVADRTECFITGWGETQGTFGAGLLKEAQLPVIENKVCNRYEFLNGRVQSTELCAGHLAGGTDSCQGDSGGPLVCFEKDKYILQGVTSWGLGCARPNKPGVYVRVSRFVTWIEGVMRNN
# [6] = tested on: Forssman shock; experiment: Forssman shock; format: in vivo; details: guinea pig, 100 mg/kg orally before i.v. hemolysin, individual animals; for time elapsed until death: 100 mg/kg
# Description: Quite different from other animals, guinea pig has on the surface of its organs a specific antigen called Forssman antigen which specifically reacts with the antibody of sheep erythrocyte. Forssman shock is based on the above principle and is a shock caused by the administration of antibody of sheep erythrocyte to a guinea pig. The Forssman shock was investigated in detail by many researches and it was definitely shown that this shock is a model case where the complement plays the principal part and that the shock is associated with a classical pathway in which the complement system is activated progressively starting from C1. Since the participation of complement in autoimmune diseases has been established, the Forssman shock can be said to be useful means for testing a drug for autoimmune diseases. A drug effective for the treatment of Forssman shock is useful as a drug of autoimmune diseases.
# The experiment was performed according to the method of I. G. Offerness et al. [Biochem. Pharmacol., 27 (14), 1873-1878 (1978)]. Male Hartley guinea pigs of about 350 g in body weight were used. Each guinea pig of the control group was administered intravenously with hemolysin (minimum dose to cause the shock) (commercial hemolysin, 5,000 U as assayed by the method of Ogata) and the time elapsed until death was observed. Each guinea pig of the treated group was administered intravenously with hemolysin after the animal was administered orally with compounds (100 mg/kg) and the time elapsed until death was observed.
# [7] = target: T3, C1r (Homo sapiens, UniProt P00736); experiment: Anti-C1r activity (inhibition of AAME hydrolysis); format: biochemical; details: at 1×10^-5 M; read-out: percent inhibition, C1r (figure in parentheses)
# T3 sequence (P00736 18-463 limits assumed): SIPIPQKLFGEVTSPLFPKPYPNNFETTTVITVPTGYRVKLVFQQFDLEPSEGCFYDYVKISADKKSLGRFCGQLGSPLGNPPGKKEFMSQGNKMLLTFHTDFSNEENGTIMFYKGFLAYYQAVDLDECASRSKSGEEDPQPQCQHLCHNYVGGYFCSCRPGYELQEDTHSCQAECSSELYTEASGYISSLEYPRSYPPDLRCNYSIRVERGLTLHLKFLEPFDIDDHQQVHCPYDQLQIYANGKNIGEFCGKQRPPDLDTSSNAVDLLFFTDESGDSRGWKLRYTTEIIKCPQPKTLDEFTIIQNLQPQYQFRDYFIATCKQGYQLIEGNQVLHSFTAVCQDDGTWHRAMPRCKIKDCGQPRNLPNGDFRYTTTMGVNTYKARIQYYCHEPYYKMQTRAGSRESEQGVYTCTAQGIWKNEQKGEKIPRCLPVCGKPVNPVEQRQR
# T3 sequence (P00736 464-705 limits assumed): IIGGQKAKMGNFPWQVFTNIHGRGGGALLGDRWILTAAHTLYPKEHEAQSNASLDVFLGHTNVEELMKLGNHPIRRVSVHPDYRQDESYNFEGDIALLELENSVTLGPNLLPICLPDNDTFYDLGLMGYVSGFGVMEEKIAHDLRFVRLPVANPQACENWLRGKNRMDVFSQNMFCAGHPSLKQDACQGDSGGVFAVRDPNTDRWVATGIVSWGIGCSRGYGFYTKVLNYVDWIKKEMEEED
# Procedure: as §1, with “meanings: C1r: […]” for “meanings:”
# [8] = target: Thrombin (Homo sapiens, UniProt P00734); experiment: biochemical; details: TAME hydrolysis; read-out: ID50, Thrombin
# [9] = Toxicity (median lethal dose); details: in vivo, mouse
smiles,measurement,setting,value
"CN=C(NC)Nc1ccc(C(=O)Oc2ccc3cc(C(=N)N)ccc3c2)cc1 [Compound No. 1, 6-amidino-2-naphthyl 4-(2,3-dimethyl)guanidino-benzoate]",pIC50,[1],5.00
same,pIC50,[2],6.40
same,Inhibition of complement mediated hemolysis (%),[3]; 1 × 10^-5,97%
same,Inhibition of complement mediated hemolysis (%),[3]; 1 × 10^-6,70%
same,Inhibition of complement mediated hemolysis (%),[3]; 1 × 10^-7,6%
same,pIC50,[4],6.15
same,pIC50,"[5]; TAME hydrolysis, read-out: ID50, Plasmin",6.10
same,Survival (instead of time elapsed until death),[6],Survival
same,time elapsed until death,[6],1291 s and 390 s and 504 s and 613 s and 404 s and 868 s
same,inhibition at 10 µM,[7],32%
same,pIC50,[8],5.05
"N=C(N)c1ccc2cc(OC(=O)c3ccc(NC4=NCCN4)cc3)ccc2c1 [Compound No. 2, 6-amidino-2-naphthyl 4-(2-imidazolinyl)amino-benzoate]",pIC50,[1],6.00
same,LD50,"[9]; iv, I.V.",19 mg/kg
same,LD50,"[9]; po, P.O.",> 3000 mg/kg
same,pIC50,[2],6.15
same,Inhibition of complement mediated hemolysis (%),[3]; 1 × 10^-5,100%
same,Inhibition of complement mediated hemolysis (%),[3]; 1 × 10^-6,91%
same,Inhibition of complement mediated hemolysis (%),[3]; 1 × 10^-7,29%
same,pIC50,[5],5.70
same,time elapsed until death,[6],1108 s and 1255 s and 980 s and 855 s
same,inhibition at 10 µM,[7],35%

# — US4777182A, “6-Amidino-2-naphthyl 4-guanidinobenzoate derivatives and pharmaceutical composition containing them” (Torii & Co., Ltd., priority 1984, dated 1988)
